Source: patent US7416848B2, “DNA encoding SNORF25 receptor” (H. Lundbeck A/S, priority 1999, dated 2008)

Columns and labels:
Assay type in all cases: cell-based
serotonin 5-HT4 receptor = molecular target: T1, serotonin 5-HT4 receptor (Homo sapiens, UniProt Q13639); experiment: cAMP in Cos-7 cells transfected with serotonin 5-HT4 receptor; settings: 10 μM, serotonin 5-HT4 (FIG. 7)
T1 construct: expressed in transfected cells; host or cells: Cos-7 cells
Procedure: A typical protocol for the electroporation method as applied to Cos-7 cells is described as follows. Cells to be used for transfection are split 24 hours prior to the transfection to provide flasks which are subconfluent at the time of transfection. The cells are harvested by trypsinization resuspended in their growth media and counted. 5×10^6 cells are suspended in 300 μl of DMEM and placed into an electroporation cuvette. 8 μg of receptor DNA plus 8 μg of any additional DNA needed (e.g. G protein expression vector, reporter construct, antibiotic resistance marker, mock vector, etc.) is added to the cell suspension, the cuvette is placed into a BioRad Gene Pulser and subjected to an electrical pulse (Gene Pulser settings: 0.25 kV voltage, 950 μF capacitance). Following the pulse, 800 μl of complete DMEM is added to each cuvette and the suspension transferred to a sterile tube. Complete medium is added to each tube to bring the final cell concentration to 1×10^5 cells/100 μl. […]
The receptor-mediated stimulation or inhibition of cyclic AMP (cAMP) formation may be assayed in cells expressing the receptors. […] The plates are stored at 4° C. for 15 min, and the cAMP content in the stopping solution is measured by radioimmunoassay. Radioactivity may be quantified using a gamma counter equipped with data reduction software. […]

SNORF25 [1] = molecular target: T2, SNORF25 (Homo sapiens, UniProt Q8TDV5); experiment: Stimulation of cAMP release by CHO cells stably expressing hSNORF25 receptors; parameters: expressed in transfected cells
T2 sequence (Q8TDV5 1-335): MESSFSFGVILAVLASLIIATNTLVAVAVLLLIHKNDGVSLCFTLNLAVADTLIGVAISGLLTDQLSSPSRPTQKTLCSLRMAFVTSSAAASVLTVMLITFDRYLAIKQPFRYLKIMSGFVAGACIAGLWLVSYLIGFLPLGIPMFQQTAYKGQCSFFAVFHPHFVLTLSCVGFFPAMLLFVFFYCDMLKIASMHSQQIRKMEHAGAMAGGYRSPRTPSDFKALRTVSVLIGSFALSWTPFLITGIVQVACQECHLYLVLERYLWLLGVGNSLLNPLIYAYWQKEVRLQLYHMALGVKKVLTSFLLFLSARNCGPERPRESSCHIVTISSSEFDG
Procedure: CHO cells are grown on 150 mm plates in HAM's F-12 medium with supplements (10% bovine calf serum, 4 mM L-glutamine and 100 units/ml penicillin/100 μg/ml streptomycin) at 37° C., 5% CO2. Stock plates of CHO cells are trypsinized and split 1:8 every 3–4 days.
Heterologous DNA can be stably incorporated into host cells, causing the cell to perpetually express a foreign protein. Methods for the delivery of the DNA into the cell are similar to those described above for transient expression but require the co-transfection of an ancillary gene to confer drug resistance on the targeted host cell. The ensuing drug resistance can be exploited to select and maintain cells that have taken up the DNA. An assortment of resistance genes are available including but not restricted to neomycin, kanamycin, and hygromycin. For the purposes of studies concerning the receptor of this invention, stable expression of a heterologous receptor protein is typically carried out in, mammalian cells including but not necessarily restricted to, CHO, HEK293, LM(tk−), etc.
(§1) The receptor-mediated stimulation or inhibition of cyclic AMP (cAMP) formation may be assayed in cells expressing the receptors. According to one method, cells are plated in 96-well plates or other vessels and preincubated in a buffer such as HEPES buffered saline (NaCl (150 mM), CaCl2 (1mM), KCl (5 mM), glucose (10 mM)) supplemented with a phosphodiesterase inhibitor such as 5 mM theophylline, with or without protease inhibitor cocktail (For example, a typical inhibitor cocktail contains 2 μg/ml aprotinin, 0.5 mg/ml leupeptin, and 10 μg/ml phosphoramidon.) for 20 min at 37° C., in 5% CO2. Test compounds are added with or without […] and incubated for an additional 10 min at 37° C. The medium is then aspirated and the reaction stopped by the addition of 100 mM HCl or other methods. The plates are stored at 4° C. for 15 min, and the cAMP content in the stopping solution is measured by radioimmunoassay. Radioactivity may be quantified using a gamma counter equipped with data reduction software. Specific modifications may be performed to optimize the assay for the receptor or to alter the detection method of cAMP.
as §1, with “According” for “The receptor-mediated stimulation or inhibition of cyclic AMP (cAMP) formation may be assayed in cells expressing the receptors. According”, “a second” for “one”, “washed 2 times with” for “plated in 96-well plates or other vessels and preincubated in a buffer such as”, “saline, as described above, and incubated overnight. On the day of the experiment, cells are washed 2 times with HEPES” for “saline (NaCl (150 mM), CaCl2 (1mM), KCl (5 mM), glucose (10 mM))”
Several other closely related analogues of PAF namely Lyso-PAF with different carbon chains also stimulated cAMP.

SNORF25 [2] = molecular target: T2, SNORF25; experiment: Cl- currents via phospholipase C pathway in SNORF25 oocytes; parameters: from linearized plasmids or PCR products containing the complete coding region of the genes; expressed in transfected cells; host or cells: Xenopus laevis oocytes injected with SNORF25 mRNA (with or without CFTR mRNA)
Procedure: Oocytes are harvested from Xenopus laevis and injected with mRNA transcripts as previously described (Quick and Lester, 1994; Smith et al., 1997). The test receptor of this invention and Gα subunit RNA transcripts are synthesized using the T7 polymerase (“Message Machine,” Ambion) from linearized plasmids or PCR products containing the complete coding region of the genes. Oocytes are injected with 10 ng synthetic receptor RNA and incubated for 3–8 days at 17 degrees. Three to eight hours prior to recording, oocytes are injected with 500 pg promiscuous Gα subunits mRNA in order to observe coupling to Ca^++ activated Cl^− currents.
Heterologous expression of GPCRs in Xenopus oocytes has been widely used to determine the identity of signaling pathways activated by agonist stimulation (Gundersen et al., 1983; Takahashi et al., 1987). Activation of the phospholipase C (PLC) pathway is assayed by applying a test compound in ND96 solution to oocytes previously injected with mRNA for the SNORF25 receptor and observing inward currents at a holding potential of approximately −80 mV. The appearance of currents that reverse at −25 mV and display other properties of the Ca^++-activated Cl^− channel is indicative of receptor-activation of PLC and release of IP3 and intracellular Ca^++.

T1 sequence (Q13639 whole entry): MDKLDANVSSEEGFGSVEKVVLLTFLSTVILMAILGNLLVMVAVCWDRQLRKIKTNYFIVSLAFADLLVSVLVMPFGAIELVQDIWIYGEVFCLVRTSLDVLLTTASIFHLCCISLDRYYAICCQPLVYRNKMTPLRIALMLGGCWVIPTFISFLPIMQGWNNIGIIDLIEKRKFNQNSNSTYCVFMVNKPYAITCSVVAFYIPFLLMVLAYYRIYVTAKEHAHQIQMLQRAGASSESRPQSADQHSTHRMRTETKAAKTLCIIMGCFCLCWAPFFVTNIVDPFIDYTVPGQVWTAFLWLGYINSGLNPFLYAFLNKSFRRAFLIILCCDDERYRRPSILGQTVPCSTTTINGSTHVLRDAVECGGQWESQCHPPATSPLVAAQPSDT

## CC1=C(/C=C/C(C)=C/C=C/C(C)=C/C(=O)O)C(C)(C)CCC1 [ATRA, all-trans-retinoic acid]
Serotonin 5-HT4 receptor
  cAMP response: no response
SNORF25 [1]; cAMP release, SNORF25 stable CHO cells (FIG. 11B)
  potency lower than PAF(C18): ~3 fold
SNORF25 [1]; maximum response as % of maximum response produced by PAF(C18) (taken as 100%)
  % of PAF(C18) Response: 105%
SNORF25 [1]; mean ± S.E.M., at least 3 experiments, CHO cells stably expressing hSNORF25
  EC50: 1440 ± 652 nM
SNORF25 [2]; chimeric G-proteins coupling Gi and Go GPCRs to phospholipase C pathway
  responses in oocytes expressing chimeric G-proteins: not evoked
SNORF25 [2]; oocytes lacking CFTR, Gq-mediated phospholipase C pathway
  Cl- currents in oocytes lacking CFTR: did not stimulate Cl^− currents
